From the NIST ThermoML archive (doi:10.1021/je9010129)

Assay: refractive index (Na D-line) (dimensionless); mn = molality of the nth substance listed, in mol/kg
Conditions: 101 kPa, Liquid, Standard Abbe refractometry

O=S(=O)([O-])[O-].[K+].[K+] [potassium sulfate] + O
refractive index
Conditions | 288.15 K | 298.15 K | 308.15 K | 318.15 K
m1 = 0.0456 | 1.33447 | 1.33359 | 1.33228 | 1.33072
m1 = 0.1387 | 1.33636 | 1.33552 | 1.33411 | 1.33251
m1 = 0.2502 | 1.33866 | 1.33771 | 1.33625 | 1.33466
m1 = 0.3409 | 1.34035 | 1.33945 | 1.33786 | 1.33626
m1 = 0.4174 | 1.34183 | 1.34071 | 1.33927 | 1.33763
m1 = 0.503 | 1.3433 | 1.34227 | 1.34077 | 1.33906
m1 = 0.5093 | 1.34341 | 1.3423 | 1.34084 | 1.3392
m1 = 0.5703 | 1.34451 | 1.34337 | 1.34186 | 1.34022
m1 = 0.6509 | – | 1.34476 | 1.34324 | 1.34151
m1 = 0.7435 | – | – | 1.34478 | 1.34301
m1 = 0.8106 | – | – | – | 1.34404
m1 = 0.8605 | – | – | – | 1.34488
m1 = 0.9049 | – | – | – | 1.34557

O [water] + O=S(=O)([O-])[O-].[K+].[K+]
m2 = 0
Conditions | refractive index
288.15 K | 1.33339
298.15 K | 1.33248
308.15 K | 1.33128
318.15 K | 1.32979

O [water] + O=S(=O)([O-])[O-].[Na+].[Na+]
m2 = 0
Conditions | refractive index
288.15 K | 1.33339
298.15 K | 1.33248
308.15 K | 1.33128
318.15 K | 1.32979

O=S(=O)([O-])[O-].[Na+].[Na+] [sodium sulfate] + O
refractive index
Conditions | 288.15 K | 298.15 K | 308.15 K | 318.15 K
m1 = 0.1002 | 1.33566 | 1.33473 | 1.33342 | 1.33185
m1 = 0.1938 | 1.33757 | 1.33653 | 1.33518 | 1.33378
m1 = 0.477 | 1.34311 | 1.34187 | 1.34052 | 1.33896
m1 = 0.7055 | 1.34719 | 1.34585 | 1.34434 | 1.34278
m1 = 0.8578 | 1.34983 | 1.34855 | 1.34695 | 1.34531
m1 = 0.9866 | – | 1.35058 | 1.34904 | 1.34742
m1 = 1.206 | – | 1.35377 | 1.3522 | 1.35057
m1 = 1.59 | – | 1.35915 | 1.35746 | 1.35598
m1 = 1.727 | – | 1.36096 | 1.35931 | 1.35778
m1 = 1.992 | – | – | 1.36271 | 1.36102
m1 = 2.237 | – | – | 1.36573 | 1.36396
m1 = 2.532 | – | – | 1.36884 | 1.36711
m1 = 2.681 | – | – | 1.37046 | 1.36857
m1 = 2.805 | – | – | 1.37172 | 1.36992
m1 = 3.053 | – | – | 1.37411 | 1.37246
m1 = 3.219 | – | – | 1.37569 | 1.37386
m1 = 3.305 | – | – | 1.37649 | 1.3747
m1 = 3.423 | – | – | 1.37756 | –

O [water] + N.N.O=S(=O)(O)O
m2 = 0
Conditions | refractive index
288.15 K | 1.33339
298.15 K | 1.33248
308.15 K | 1.33128
318.15 K | 1.32979

N.N.O=S(=O)(O)O [ammonium sulfate] + O
refractive index
Conditions | 288.15 K | 298.15 K | 308.15 K | 318.15 K
m1 = 0.2725 | 1.33934 | 1.33813 | 1.33696 | 1.33544
m1 = 0.3995 | 1.34174 | 1.3408 | 1.33941 | 1.33806
m1 = 0.4876 | 1.34348 | 1.34227 | 1.34098 | 1.33956
m1 = 0.8025 | 1.34905 | 1.34798 | 1.3467 | 1.34521
m1 = 1.198 | 1.35554 | 1.35434 | 1.353 | 1.35156
m1 = 1.604 | 1.3614 | 1.36025 | 1.35888 | 1.3574
m1 = 1.992 | 1.36659 | 1.36535 | 1.36402 | 1.36252
m1 = 2.381 | 1.37134 | 1.37008 | 1.36878 | 1.36733
m1 = 2.801 | 1.37588 | 1.37472 | 1.37338 | 1.37211
m1 = 3.2 | 1.38006 | 1.37873 | 1.37738 | 1.37611
m1 = 3.619 | 1.38383 | 1.38259 | 1.38126 | 1.38009
m1 = 3.997 | 1.38708 | 1.38596 | 1.38446 | 1.38325
m1 = 4.396 | 1.39018 | 1.38897 | 1.3876 | 1.38647
m1 = 4.763 | 1.39286 | 1.3917 | 1.39031 | 1.38922
m1 = 5.181 | 1.3957 | 1.39451 | 1.3932 | 1.39197
m1 = 5.6 | 1.39836 | 1.39715 | 1.39584 | 1.39461
m1 = 5.876 | – | – | 1.3975 | 1.39618
m1 = 6.328 | – | – | – | 1.3983
